Test results as given in the NIST ThermoML archive (doi:10.1021/je050052+).

Assay: excess molar enthalpy (molar enthalpy of mixing); xn = mol fraction of the nth substance listed
Details: Liquid, Flow calorimetry

COC(=O)OC [dimethyl carbonate] + CC(C)O
Details	excess molar enthalpy [kJ/mol]
298.15 K, 1000 kPa, x1 = 0.05	0.5027
298.15 K, 1000 kPa, x1 = 0.1	0.9288
298.15 K, 1000 kPa, x1 = 0.15	1.267
298.15 K, 1000 kPa, x1 = 0.2	1.546
298.15 K, 1000 kPa, x1 = 0.25	1.761
298.15 K, 1000 kPa, x1 = 0.3	1.924
298.15 K, 1000 kPa, x1 = 0.35	2.05
298.15 K, 1000 kPa, x1 = 0.4	2.133
298.15 K, 1000 kPa, x1 = 0.45	2.181
298.15 K, 1000 kPa, x1 = 0.5	2.203
298.15 K, 1000 kPa, x1 = 0.55	2.172
298.15 K, 1000 kPa, x1 = 0.6	2.112
298.15 K, 1000 kPa, x1 = 0.65	2.01
298.15 K, 1000 kPa, x1 = 0.7	1.866
298.15 K, 1000 kPa, x1 = 0.75	1.679
298.15 K, 1000 kPa, x1 = 0.8	1.433
298.15 K, 1000 kPa, x1 = 0.95	0.447
313.15 K, 100 kPa, x1 = 0.0483	0.4672
313.15 K, 100 kPa, x1 = 0.0998	0.9317
313.15 K, 100 kPa, x1 = 0.1507	1.316
313.15 K, 100 kPa, x1 = 0.2011	1.624
313.15 K, 100 kPa, x1 = 0.2509	1.871
313.15 K, 100 kPa, x1 = 0.3002	2.06
313.15 K, 100 kPa, x1 = 0.3489	2.208
313.15 K, 100 kPa, x1 = 0.4005	2.316
313.15 K, 100 kPa, x1 = 0.4515	2.376
313.15 K, 100 kPa, x1 = 0.4986	2.392
313.15 K, 100 kPa, x1 = 0.5485	2.364
313.15 K, 100 kPa, x1 = 0.6011	2.302
313.15 K, 100 kPa, x1 = 0.6498	2.194
313.15 K, 100 kPa, x1 = 0.7012	2.045
313.15 K, 100 kPa, x1 = 0.7488	1.849
313.15 K, 100 kPa, x1 = 0.8486	1.313
313.15 K, 100 kPa, x1 = 0.9007	0.9352
313.15 K, 100 kPa, x1 = 0.9492	0.4835
313.15 K, 1000 kPa, x1 = 0.0483	0.4635
313.15 K, 1000 kPa, x1 = 0.0998	0.9334
313.15 K, 1000 kPa, x1 = 0.1507	1.312
313.15 K, 1000 kPa, x1 = 0.201	1.62
313.15 K, 1000 kPa, x1 = 0.2508	1.868
313.15 K, 1000 kPa, x1 = 0.3	2.063
313.15 K, 1000 kPa, x1 = 0.3487	2.211
313.15 K, 1000 kPa, x1 = 0.4003	2.315
313.15 K, 1000 kPa, x1 = 0.4513	2.361
313.15 K, 1000 kPa, x1 = 0.4984	2.376
313.15 K, 1000 kPa, x1 = 0.5516	2.352
313.15 K, 1000 kPa, x1 = 0.6009	2.291
313.15 K, 1000 kPa, x1 = 0.6497	2.185
313.15 K, 1000 kPa, x1 = 0.7011	2.033
313.15 K, 1000 kPa, x1 = 0.7487	1.843
313.15 K, 1000 kPa, x1 = 0.8486	1.301
313.15 K, 1000 kPa, x1 = 0.9007	0.9243
313.15 K, 1000 kPa, x1 = 0.9491	0.4909
313.15 K, 10000 kPa, x1 = 0.0517	0.4582
313.15 K, 10000 kPa, x1 = 0.0992	0.8869
313.15 K, 10000 kPa, x1 = 0.1499	1.268
313.15 K, 10000 kPa, x1 = 0.2	1.576
313.15 K, 10000 kPa, x1 = 0.2497	1.822
313.15 K, 10000 kPa, x1 = 0.2988	2.014
313.15 K, 10000 kPa, x1 = 0.3508	2.166
313.15 K, 10000 kPa, x1 = 0.3989	2.262
313.15 K, 10000 kPa, x1 = 0.4499	2.325
313.15 K, 10000 kPa, x1 = 0.5003	2.342
313.15 K, 10000 kPa, x1 = 0.5501	2.317
313.15 K, 10000 kPa, x1 = 0.5995	2.256
313.15 K, 10000 kPa, x1 = 0.6515	2.147
313.15 K, 10000 kPa, x1 = 0.6998	2.008
313.15 K, 10000 kPa, x1 = 0.7507	1.81
313.15 K, 10000 kPa, x1 = 0.8011	1.56
313.15 K, 10000 kPa, x1 = 0.8509	1.278
313.15 K, 10000 kPa, x1 = 0.9001	0.9323
313.15 K, 10000 kPa, x1 = 0.9488	0.5267
328.15 K, 1000 kPa, x1 = 0.05	0.5412
328.15 K, 1000 kPa, x1 = 0.1	0.9787
328.15 K, 1000 kPa, x1 = 0.15	1.372
328.15 K, 1000 kPa, x1 = 0.2	1.696
328.15 K, 1000 kPa, x1 = 0.25	1.956
328.15 K, 1000 kPa, x1 = 0.3	2.157
328.15 K, 1000 kPa, x1 = 0.35	2.325
328.15 K, 1000 kPa, x1 = 0.4	2.436
328.15 K, 1000 kPa, x1 = 0.45	2.494
328.15 K, 1000 kPa, x1 = 0.5	2.525
328.15 K, 1000 kPa, x1 = 0.55	2.507
328.15 K, 1000 kPa, x1 = 0.6	2.448
328.15 K, 1000 kPa, x1 = 0.65	2.326
328.15 K, 1000 kPa, x1 = 0.7	2.145
328.15 K, 1000 kPa, x1 = 0.75	1.958
328.15 K, 1000 kPa, x1 = 0.8	1.688
328.15 K, 1000 kPa, x1 = 0.85	1.363
328.15 K, 1000 kPa, x1 = 0.9	0.9621
328.15 K, 1000 kPa, x1 = 0.95	0.4865

COC(=O)OC [dimethyl carbonate] + CCCO
Details	excess molar enthalpy [kJ/mol]
298.15 K, 1000 kPa, x1 = 0.05	0.4517
298.15 K, 1000 kPa, x1 = 0.1	0.8471
298.15 K, 1000 kPa, x1 = 0.15	1.164
298.15 K, 1000 kPa, x1 = 0.2	1.423
298.15 K, 1000 kPa, x1 = 0.25	1.604
298.15 K, 1000 kPa, x1 = 0.3	1.755
298.15 K, 1000 kPa, x1 = 0.35	1.87
298.15 K, 1000 kPa, x1 = 0.4	1.928
298.15 K, 1000 kPa, x1 = 0.45	1.963
298.15 K, 1000 kPa, x1 = 0.5	1.958
298.15 K, 1000 kPa, x1 = 0.55	1.92
298.15 K, 1000 kPa, x1 = 0.6	1.856
298.15 K, 1000 kPa, x1 = 0.65	1.757
298.15 K, 1000 kPa, x1 = 0.7	1.625
298.15 K, 1000 kPa, x1 = 0.75	1.461
298.15 K, 1000 kPa, x1 = 0.8	1.254
298.15 K, 1000 kPa, x1 = 0.85	1.003
298.15 K, 1000 kPa, x1 = 0.9515	0.348
313.15 K, 1000 kPa, x1 = 0.0485	0.4248
313.15 K, 1000 kPa, x1 = 0.1002	0.8791
313.15 K, 1000 kPa, x1 = 0.1512	1.245
313.15 K, 1000 kPa, x1 = 0.2017	1.54
313.15 K, 1000 kPa, x1 = 0.2516	1.771
313.15 K, 1000 kPa, x1 = 0.3009	1.939
313.15 K, 1000 kPa, x1 = 0.3497	2.059
313.15 K, 1000 kPa, x1 = 0.4014	2.148
313.15 K, 1000 kPa, x1 = 0.449	2.189
313.15 K, 1000 kPa, x1 = 0.4995	2.19
313.15 K, 1000 kPa, x1 = 0.5494	2.149
313.15 K, 1000 kPa, x1 = 0.5987	2.08
313.15 K, 1000 kPa, x1 = 0.6506	1.967
313.15 K, 1000 kPa, x1 = 0.6988	1.834
313.15 K, 1000 kPa, x1 = 0.7495	1.651
313.15 K, 1000 kPa, x1 = 0.8491	1.136
313.15 K, 1000 kPa, x1 = 0.901	0.7944
313.15 K, 1000 kPa, x1 = 0.9493	0.4004
313.15 K, 10000 kPa, x1 = 0.0482	0.4902
313.15 K, 10000 kPa, x1 = 0.0996	0.9343
313.15 K, 10000 kPa, x1 = 0.1504	1.298
313.15 K, 10000 kPa, x1 = 0.2007	1.588
313.15 K, 10000 kPa, x1 = 0.2505	1.811
313.15 K, 10000 kPa, x1 = 0.2997	1.98
313.15 K, 10000 kPa, x1 = 0.3483	2.1
313.15 K, 10000 kPa, x1 = 0.3999	2.183
313.15 K, 10000 kPa, x1 = 0.4509	2.224
313.15 K, 10000 kPa, x1 = 0.5013	2.224
313.15 K, 10000 kPa, x1 = 0.5512	2.187
313.15 K, 10000 kPa, x1 = 0.6005	2.112
313.15 K, 10000 kPa, x1 = 0.6493	2.008
313.15 K, 10000 kPa, x1 = 0.7007	1.846
313.15 K, 10000 kPa, x1 = 0.7515	1.649
313.15 K, 10000 kPa, x1 = 0.8514	1.137
313.15 K, 10000 kPa, x1 = 0.9005	0.809
313.15 K, 10000 kPa, x1 = 0.949	0.4139
328.15 K, 1000 kPa, x1 = 0.05	0.493
328.15 K, 1000 kPa, x1 = 0.1	0.9559
328.15 K, 1000 kPa, x1 = 0.15	1.342
328.15 K, 1000 kPa, x1 = 0.2	1.649
328.15 K, 1000 kPa, x1 = 0.25	1.9
328.15 K, 1000 kPa, x1 = 0.3	2.086
328.15 K, 1000 kPa, x1 = 0.35	2.219
328.15 K, 1000 kPa, x1 = 0.4	2.314
328.15 K, 1000 kPa, x1 = 0.45	2.371
328.15 K, 1000 kPa, x1 = 0.5	2.373
328.15 K, 1000 kPa, x1 = 0.55	2.342
328.15 K, 1000 kPa, x1 = 0.6	2.273
328.15 K, 1000 kPa, x1 = 0.65	2.165
328.15 K, 1000 kPa, x1 = 0.7	2.005
328.15 K, 1000 kPa, x1 = 0.75	1.798
328.15 K, 1000 kPa, x1 = 0.85	1.237
328.15 K, 1000 kPa, x1 = 0.9	0.8825
328.15 K, 1000 kPa, x1 = 0.95	0.4457
